Assay results reported in ChEMBL document CHEMBL1201862, “PubChem BioAssay data set” (2004).
Active and inactive are the calls of the source.

Assays:
[1] = test system: HeLa; experiment: ATP-based viability loss in HeLa cells – cell-based, CellTiter-Glo luminescence, cherry-pick samples, cytotoxicity control for MITF activator project, dose response (AID 540259); format: functional; details: Homo sapiens
[2] = test system: Candida albicans; experiment: fluconazole-resistant Candida strain growth inhibitors – CaCi-8 strain, dry powder, set 4, dose response (AID 488950); format: functional, organism-based
[3] = test system: Candida albicans; experiment: C. albicans growth inhibition with fluconazole – CaCi-2 strain, Alamar Blue, dry powder, set 4, dose response (AID 488943); format: functional, organism-based
[4] = test system: Candida albicans; experiment: resistant Candida growth with fluconazole co-treatment – CaCi-8 strain, Alamar Blue, dry powder, set 2, dose response (AID 488909); format: functional, organism-based
[5] = biological target: T1, Sentrin-specific protease 8 (Homo sapiens, UniProt Q96LD8); experiment: inhibition of human SENP8 cleavage activity – biochemical, luminescence, SAR follow-up (AID 504501); format: functional
T1 sequence (Q96LD8 whole entry): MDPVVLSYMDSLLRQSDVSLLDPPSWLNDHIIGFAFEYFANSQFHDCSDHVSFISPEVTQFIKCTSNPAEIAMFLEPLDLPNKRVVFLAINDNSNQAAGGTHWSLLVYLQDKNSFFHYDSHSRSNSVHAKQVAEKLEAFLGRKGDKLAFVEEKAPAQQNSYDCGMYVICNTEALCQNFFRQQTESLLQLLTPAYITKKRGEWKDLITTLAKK

[6] = biological target: T2, Caspase-3 (Homo sapiens, UniProt P42574); experiment: SAR Analysis of small molecule inhibitors of Sentrin-specific proteases (SENPs) using a Caspase-3 Selectivity assay. [Related pubchem assays (depositor defined):AID2540, AID2599, AID434973, AID489001]; format: functional
T2 sequence (P42574 whole entry): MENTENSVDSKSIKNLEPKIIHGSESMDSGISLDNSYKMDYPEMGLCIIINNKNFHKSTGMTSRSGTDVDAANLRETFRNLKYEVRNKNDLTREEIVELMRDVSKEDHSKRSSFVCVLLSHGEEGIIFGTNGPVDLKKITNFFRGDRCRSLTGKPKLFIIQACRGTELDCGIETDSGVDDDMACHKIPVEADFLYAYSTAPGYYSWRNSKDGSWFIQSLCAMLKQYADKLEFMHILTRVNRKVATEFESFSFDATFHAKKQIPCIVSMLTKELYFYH

[7] = biological target: T3, Sentrin-specific protease 6 (Homo sapiens, UniProt Q9GZR1); experiment: SAR Analysis of small molecule inhibitors of Sentrin-specific protease 6 (SENP6) using a Luminescent assay. [Related pubchem assays (depositor defined):AID2582, AID2599]; format: functional
T3 sequence (Q9GZR1 whole entry): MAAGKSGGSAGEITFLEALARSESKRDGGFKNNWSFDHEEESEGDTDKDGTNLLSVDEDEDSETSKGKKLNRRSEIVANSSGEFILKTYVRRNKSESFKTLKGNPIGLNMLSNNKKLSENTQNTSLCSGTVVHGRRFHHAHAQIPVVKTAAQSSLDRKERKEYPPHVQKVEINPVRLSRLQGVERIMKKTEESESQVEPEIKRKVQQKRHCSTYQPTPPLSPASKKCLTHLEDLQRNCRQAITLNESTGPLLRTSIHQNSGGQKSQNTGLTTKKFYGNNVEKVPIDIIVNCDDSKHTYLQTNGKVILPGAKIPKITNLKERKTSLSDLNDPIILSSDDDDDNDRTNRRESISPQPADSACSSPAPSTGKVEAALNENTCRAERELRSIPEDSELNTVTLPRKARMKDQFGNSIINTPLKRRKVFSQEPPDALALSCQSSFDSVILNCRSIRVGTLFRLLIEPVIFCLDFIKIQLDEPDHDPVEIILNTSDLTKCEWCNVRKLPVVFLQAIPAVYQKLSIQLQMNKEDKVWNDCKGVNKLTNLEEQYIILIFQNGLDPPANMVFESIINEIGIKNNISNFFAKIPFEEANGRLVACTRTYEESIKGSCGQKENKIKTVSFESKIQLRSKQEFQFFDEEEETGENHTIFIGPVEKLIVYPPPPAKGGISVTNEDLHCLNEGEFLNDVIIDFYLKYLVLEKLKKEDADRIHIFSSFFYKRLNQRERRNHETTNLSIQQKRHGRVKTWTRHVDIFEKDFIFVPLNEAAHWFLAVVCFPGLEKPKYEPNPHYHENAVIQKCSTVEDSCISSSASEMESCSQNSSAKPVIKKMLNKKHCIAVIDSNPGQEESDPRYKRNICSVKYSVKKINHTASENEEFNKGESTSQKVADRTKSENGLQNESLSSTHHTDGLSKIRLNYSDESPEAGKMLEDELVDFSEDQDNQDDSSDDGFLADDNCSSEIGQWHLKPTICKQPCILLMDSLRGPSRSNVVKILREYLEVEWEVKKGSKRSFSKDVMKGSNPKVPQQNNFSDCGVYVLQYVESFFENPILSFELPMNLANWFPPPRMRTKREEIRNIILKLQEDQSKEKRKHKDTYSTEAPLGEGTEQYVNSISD

[8] = biological target: T4, Sentrin-specific protease 7 (Homo sapiens, UniProt Q9BQF6); experiment: inhibition of human SENP7 cleavage activity – biochemical, luminescence, SAR follow-up (AID 504497); format: functional
T4 sequence (Q9BQF6 whole entry): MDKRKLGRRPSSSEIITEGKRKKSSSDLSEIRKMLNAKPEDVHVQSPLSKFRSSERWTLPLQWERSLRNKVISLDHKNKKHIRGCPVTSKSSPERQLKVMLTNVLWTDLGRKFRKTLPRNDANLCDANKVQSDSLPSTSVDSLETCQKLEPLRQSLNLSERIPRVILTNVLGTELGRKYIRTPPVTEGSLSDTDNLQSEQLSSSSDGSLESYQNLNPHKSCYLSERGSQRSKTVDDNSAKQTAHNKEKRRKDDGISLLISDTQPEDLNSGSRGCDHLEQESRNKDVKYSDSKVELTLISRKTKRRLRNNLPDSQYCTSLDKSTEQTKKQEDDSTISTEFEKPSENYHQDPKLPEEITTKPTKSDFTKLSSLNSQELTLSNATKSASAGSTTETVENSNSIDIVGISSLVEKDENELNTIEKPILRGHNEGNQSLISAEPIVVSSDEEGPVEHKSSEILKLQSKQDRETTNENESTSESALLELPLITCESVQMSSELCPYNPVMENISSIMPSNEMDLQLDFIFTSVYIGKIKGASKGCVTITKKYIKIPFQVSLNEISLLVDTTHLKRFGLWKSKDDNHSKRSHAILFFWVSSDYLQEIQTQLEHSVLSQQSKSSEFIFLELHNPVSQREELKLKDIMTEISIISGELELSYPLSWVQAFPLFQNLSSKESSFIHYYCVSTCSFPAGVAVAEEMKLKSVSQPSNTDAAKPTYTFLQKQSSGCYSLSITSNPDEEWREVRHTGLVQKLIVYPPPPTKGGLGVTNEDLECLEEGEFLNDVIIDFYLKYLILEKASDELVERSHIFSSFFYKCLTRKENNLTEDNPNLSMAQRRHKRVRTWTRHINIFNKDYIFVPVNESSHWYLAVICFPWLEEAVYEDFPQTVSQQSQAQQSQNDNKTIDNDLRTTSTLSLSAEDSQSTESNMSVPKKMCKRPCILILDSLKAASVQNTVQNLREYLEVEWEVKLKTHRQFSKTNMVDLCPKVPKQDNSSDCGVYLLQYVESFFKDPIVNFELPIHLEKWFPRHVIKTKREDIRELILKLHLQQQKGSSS

[9] = biological target: Opioid receptors; mu & delta (Homo sapiens, UniProt P41143+P35372); experiment: OPRM1-OPRD1 heterodimer agonist potency – cell-based, luminescence, dose response (AID 588407); format: functional
[10] = test system: INS1; experiment: INS-1E survival protection against cytokine death – cell-based, luminescence, retest, dose response (AID 449756); format: functional; details: Rattus norvegicus;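 note: cell death triggered by IL-1 beta plus TNF-alpha plus IFN-gamma mixture; protective hits raise ATP signal compared with cytokine alone wells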
[11] = test system: HEK293; experiment: membrane integrity loss in HEK cells – cell-based, fluorescence, cytotoxicity control for IDE activator project, dose response (AID 588440); format: functional; details: Homo sapiens;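 note: cytotoxicity by LDH release measuring loss of membrane integrity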
[12] = test system: HEK293; experiment: optical interference in Abeta FP readout, dose response, artefact control for IDE activator project, biochemical, fluorescence polarization (AID 588442); format: functional, cell-based; details: Homo sapiens

Q: CCc1ccc(C(=O)NC2CCCCC2)s1 was tested. Which AC50 [1] did it give?
A: 87.6 µM (active)

Q: Which results are given for O=C(Nc1ccc(Cl)cc1)N1CCN(c2ccnc3cc(Cl)ccc23)CC1?
A: AC50 [2]: 1.56 µM (active); AC50 [3]: 1.16 µM (active); AC50 [4]: 0.295 µM (active)

Q: Which results are given for CC(C)CC(=O)N1CCN(c2ccnc3cc(Cl)ccc23)CC1?
A: AC50 [2]: 6.04 µM (active); AC50 [3]: 5.54 µM (active); AC50 [4]: 12.7 µM (active)

Q: With N#Cc1ccc(-c2nc(/C=C/c3ccc(F)cc3)no2)cc1 as the molecule, how does the IC50 [5] read?
A: > 99 µM (inactive)

Q: What about the IC50 [6] of the same molecule?
A: > 99 µM (inactive)

Q: What about the IC50 [7] of the same molecule?
A: > 99 µM (inactive)

Q: And the IC50 [8]?
A: > 99 µM (inactive)

Q: Which results are given for Clc1ccc(C(c2ccc(Cl)cc2)[n+]2ccn(CC(OCc3ccc(Cl)cc3Cl)c3ccc(Cl)cc3Cl)c2)cc1.[Cl-] (stereo not given) [CALMIDAZOLIUM CHLORIDE]?
A: EC50 [9]: > 3.426 µM; AC50 [10]: 2.56 µM (active); IC50 [11]: 2.01 µM (active); EC50 [12]: > 54.7 µM (inactive)
